# Reference: US20070066616A1, “Inhibitors for extracellular signal-regulated kinase docking domains and uses therefor” (priority 2005, published 2007)
# What was measured:
# [1] = tested on: HeLa, A549, or SUM-159 cells; experiment: Colony formation assay, screen of test compounds (FIG. 7A); type: cell-based, human; set-up: dose or concentration left out as unconfirmed; conditions: FIG. 7A screen as printed
# Description: HeLa, A549, or SUM-159 cells were plated at a low density of ˜200-400 cells per well in the absence or presence of putative ERK docking domain inhibitors. Cell colonies were stained with crystal violet and counted after 6-10 days. In FIG. 7A cells were grown on 10 cm plates in the absence (−) or presence of 100 mM of compound 67, 36, 68, 81, or 76. Colony formation dose response in the presence of the indicated concentrations of compound 76 or 81 for Hela cells […] (FIG. 7B), A549 cells (50 mM) (FIG. 7C), or SUM-159 cells (50 mM) (FIG. 7D).
# (§1) Trypsinized cells were plated on 12 or 24 well plates at low densities (200-400 cells per well) in the absence (DMSO only) or presence of test compounds. In additional experiments, cells were first allowed to adhere to the culture dishes for 16 hours prior to treatment with test compounds. The treated cells received a single dose of the test compounds at the beginning of the experiments. The control and treated cells were grown for 8-14 days to allow the formation of colonies. Cells then were fixed for 10 minutes in 4% paraformaldehyde and stained with 0.2% crystal violet (in 20% methanol) for 1-2 minutes. Following several washes with distilled water, the colonies (containing at least 40 cells) were counted. Each individual experiment was repeated on at least 3 separate occasions.
# The effects of the active compounds on cell proliferation and survival were tested using a colony formation assay.
# [2] = tested on: SUM-159 estrogen-receptor negative breast cancer cell line; experiment: Cell proliferation, SUM-159 cells; type: cell-based, human
# Description: HeLa, A549, or SUM-159 cells were plated at a low density of ˜200-400 cells per well in the absence or presence of putative ERK docking domain inhibitors. Cell colonies were stained with crystal violet and counted after 6-10 days. In FIG. 7A cells were grown on 10 cm plates in the absence (−) or presence of 100 mM of compound 67, 36, 68, 81, or 76. Colony formation dose response in the presence of the indicated concentrations of compound 76 or 81 for Hela cells (100 mM) (FIG. 7B), A549 cells (50 mM) (FIG. 7C), or SUM-159 cells (50 mM) (FIG. 7D).
# as §1
# [3] = tested on: ERK-mediated phosphorylation of Rsk-1 on Thr573; experiment: ERK-mediated Rsk-1 phosphorylation (Thr573), immunoblot and densitometry in EGF-stimulated HeLa cells; type: cell-based, human; conditions: immunoblot
# Description: Prior to harvesting, cells were pre-incubated with the test compounds for 15-20 minutes and then stimulated with EGF or anisomycin to activate the ERK or p38 MAP kinase pathways, respectively. Control and treated cells were washed twice with cold phosphate buffered saline (PBS, pH 7.2; Invitrogen) and proteins were collected following cell lysis with 300 μl of cold tissue lysis buffer (20 mM Tris, pH 7.4, 137 mM NaCl, 2 mM EDTA, 1% Triton X-100, 0.1% SDS, 25 mM β-glycerophosphate, 2 mM sodium pyrophosphate, 10% glycerol, 1 mM sodium orthovanadate, 1 mM phenylmethylsulfonyl fluoride (PMSF), 1 mM benzamidine), allowed to incubate on ice for about 10 minutes and then centrifuged at 20,000 (X g) to clarify the lysates of insoluble material. The lysates then were diluted with an equal volume of 2X SDS-sample buffer and the proteins were separated on SDS-PAGE for immunoblot analysis. Immunoblot analysis was done as previously described (41-43).
# All compounds were subjected to assays of ERK specific phosphorylation of Rsk-1 and/or Elk-1 as examined by immunoblot analysis using phosphorylation specific antibodies. In FIG. 5A HeLa cells were cultured in 24 well plates and pretreated for 20-30 minutes with […] of the selected test compounds. The cells were stimulated with epidermal growth factor (EGF, 50 ng/ml) for 5 minutes to activate the ERK pathway. Cell lysates were collected and immunoblotted for ERK-mediated phosphorylation of Rsk-1 on Thr573. As shown, EGF treatment alone caused a robust increase in Thr573 phosphorylation on Rsk-1 in the absence of test compounds. The presence of test compounds had inhibitory effects on ERK-mediated Rsk-1 phosphorylation.
# Compounds 86-98 were first tested for inhibition of ERK mediated phosphorylation of the transcription factor Elk-1, which is an important regulator of cell proliferation. Cells were treated with EGF to activate the ERK pathway and phosphorylation of Elk-1 on the ERK site at S383 was detected by immunoblot analysis (FIG. 5C). […] The effects of the test compounds were also tested with Rsk-1, another ERK substrate involved in regulating cell proliferation.
# ERK2 D316N = target: T1, ERK2 D316N (Mus musculus, UniProt P63085, D316N); experiment: Fluorescence titration with ERK2 point mutant D316N (CD domain); type: binding; conditions: fluorescence quenching
# T1 construct: (His)x6; made in house; host or cells: bacteria (as described for ERK2 in general; not repeated for the mutant)
# T1 sequence (P63085 whole entry D316N, the tested form may be a part): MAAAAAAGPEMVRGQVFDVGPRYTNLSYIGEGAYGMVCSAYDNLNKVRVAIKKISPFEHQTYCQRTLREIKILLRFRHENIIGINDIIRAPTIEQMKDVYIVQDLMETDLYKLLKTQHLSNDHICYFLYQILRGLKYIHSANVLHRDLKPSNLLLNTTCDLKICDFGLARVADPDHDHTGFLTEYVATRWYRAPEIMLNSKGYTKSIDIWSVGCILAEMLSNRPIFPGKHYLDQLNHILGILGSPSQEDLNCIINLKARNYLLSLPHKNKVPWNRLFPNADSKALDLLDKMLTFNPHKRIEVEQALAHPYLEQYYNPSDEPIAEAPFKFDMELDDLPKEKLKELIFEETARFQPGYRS
# Description: Direct binding interactions between ERK2 and the biologically active compounds is determined using fluorescence spectroscopy (47). Experiments measure the changes in the intrinsic ERK2 fluorescence due to the presence of aromatic amino acids, with the indole group of tryptophan being the major fluorophore with absorption and emission maxima around 280 and 340 nanometers (nm), respectively. Fluorescence spectra were recorded with a Luminescence Spectrometer LS50 (Perkin Elmer, Boston, Mass.). For all experiments, ERK2 protein was diluted into 20 mM Tris-HCl, pH 7.5. Titrations were performed by increasing the test compound concentration while maintaining the ERK2 protein concentration at 3 μM.
# Unphosphorylated and phosphorylated ERK2 typically are incubated with […] of the biologically active compounds and the fluorescence intensity is measured. If necessary, higher inhibitor concentrations are used to saturate fluorescence quenching. The excitation wavelength was 295 nm and fluorescence was monitored from 300 to 500 nm. All reported fluorescence intensities are relative values and are not corrected for wavelength variations in detector response. […] Because the test compounds contain aromatic structures, the emission spectra of the active compounds in the absence of ERK2 is be determined. […]
smiles,measurement,setting,value
CCOc1ccc(C=C2SC(=O)N(CCN)C2=O)cc1 [Compound 76],effect on colony formation / cell proliferation (in words),[1],completely inhibited
same,inhibition of cell proliferation in SUM-159 (in words),[2],inhibition of cell proliferation
same,effect on ERK-mediated Rsk-1 phosphorylation (in words),[3],highest inhibition
same,reduction in binding affinity compared to wild type ERK2,ERK2 D316N,approximately 5 fold
